Reference: paper PMC11855478, “Bicyclic N,S-Acetals Containing Fused Cysteine-Amide System as New Heterocyclic Class Targeting Human Farnesyltransferase (FTase-h)” (International Journal of Molecular Sciences, 2025)

Tests used:
[1] = tested on: UACC-62 (Melanoma); test: NCI one dose, UACC-62; type: cell-based, human; settings: UACC-62, 1.00E-5 Molar one dose
Outline: (§1)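 48 h continuous compound exposure in the NCI 60 human cancer cell line screen, followed by sulforhodamine B measurement of cytotoxicity.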

[2] = tested on: UACC-257 melanoma cells; test: NCI one dose, UACC-257; type: cell-based, human; settings: UACC-257, 1.00E-5 Molar one dose
Outline: as §1

[3] = tested on: OVCAR-5 (Ovarian Cancer); test: NCI one dose, OVCAR-5; type: cell-based, human; settings: OVCAR-5, 1.00E-5 Molar one dose
Outline: as §1

[4] = tested on: CCRF-CEM (Leukemia); test: NCI one dose, CCRF-CEM; type: cell-based, human; settings: 1.00E-5 Molar one dose
Outline: as §1

[5] = tested on: RPMI-8226 (Leukemia); test: NCI one dose, RPMI-8226; type: cell-based, human; settings: RPMI-8226, 1.00E-5 Molar one dose
Outline: as §1

[6] = tested on: SF-539 (CNS Cancer); test: NCI one dose, SF-539; type: cell-based, human; settings: SF-539, 1.00E-5 Molar one dose
Outline: as §1

[7] = tested on: A498 (Renal Cancer); test: NCI one dose, A498; type: cell-based, human; settings: A498, 1.00E-5 Molar one dose
Outline: as §1

[8] = tested on: NCI-H322M (Non-Small Cell Lung Cancer); test: NCI one dose, NCI-H322M; type: cell-based, human; settings: 1.00E-5 Molar one dose
Outline: as §1

[9] = tested on: OVCAR-4 (Ovarian Cancer); test: NCI one dose, OVCAR-4; type: cell-based, human; settings: OVCAR-4, 1.00E-5 Molar one dose
Outline: as §1

[10] = tested on: IGROV1 (Ovarian Cancer); test: NCI one dose, IGROV1; type: cell-based, human; settings: IGROV1, 1.00E-5 Molar one dose
Outline: as §1

[11] = tested on: SNB-19 (CNS Cancer); test: NCI one dose, SNB-19; type: cell-based, human; settings: SNB-19, 1.00E-5 Molar one dose
Outline: as §1

[12] = tested on: U251 (CNS Cancer); test: NCI one dose, U251; type: cell-based, human; settings: U251, 1.00E-5 Molar one dose
Outline: as §1

[13] = tested on: NCI-H23 (Non-Small Cell Lung Cancer); test: NCI one dose, NCI-H23; type: cell-based, human; settings: NCI-H23, 1.00E-5 Molar one dose
Outline: as §1

[14] = tested on: SF-268 (CNS Cancer); test: NCI one dose, SF-268; type: cell-based, human; settings: SF-268, 1.00E-5 Molar one dose
Outline: as §1

[15] = tested on: K-562 leukaemia cells; test: NCI one dose, K-562; type: cell-based, human; settings: K-562, 1.00E-5 Molar one dose
Outline: as §1

[16] = tested on: HCC-2998 (Colon Cancer); test: NCI one dose, HCC-2998; type: cell-based, human; settings: HCC-2998, 1.00E-5 Molar one dose
Outline: as §1

[17] = tested on: ACHN (Renal Cancer); test: NCI one dose, ACHN; type: cell-based, human; settings: 1.00E-5 Molar one dose
Outline: (§2)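 Compounds were screened in the NCI 60-cell-line human cancer panel with a 48 h exposure; cytotoxicity was read by sulforhodamine B staining.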

[18] = tested on: COLO 205 (Colon Cancer); test: NCI one dose, COLO 205; type: cell-based, human; settings: COLO 205, 1.00E-5 Molar one dose
Outline: as §1

[19] = tested on: MALME-3M (Melanoma); test: NCI one dose, MALME-3M; type: cell-based, human; settings: 1.00E-5 Molar one dose
Outline: as §2

[20] = tested on: EKVX (Non-Small Cell Lung Cancer); test: NCI one dose, EKVX; type: cell-based, human; settings: 1.00E-5 Molar one dose
Outline: as §1

[21] = tested on: SN12C (Renal Cancer); test: NCI one dose, SN12C; type: cell-based, human; settings: 1.00E-5 Molar one dose
Outline: as §1

[22] = tested on: SF-295 (CNS Cancer); test: NCI one dose, SF-295; type: cell-based, human; settings: SF-295, 1.00E-5 Molar one dose
Outline: as §2

[23] = tested on: CAKI-1 (Renal Cancer); test: NCI one dose, CAKI-1; type: cell-based, human; settings: CAKI-1, 1.00E-5 Molar one dose
Outline: as §1

[24] = tested on: LOX IMVI (Melanoma); test: NCI one dose, LOX IMVI; type: cell-based, human; settings: 1.00E-5 Molar one dose
Outline: as §1

[25] = tested on: panel of 60 human cancer cell lines; test: NCI 60 cell panel one dose screen (whole panel); type: cell-based; design: Delta (One Dose Mean Graph): unit not given here; settings: 1.00E-5 Molar one dose
Outline: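 Sulforhodamine B read-out after 48 h treatment at one high dose (10 µM), run on the full 60-line NCI human tumour cell panel.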

[26] = tested on: RXF 393 (Renal Cancer); test: NCI one dose, RXF 393; type: cell-based, human; settings: RXF 393, 1.00E-5 Molar one dose
Outline: as §1

[27] = tested on: HS 578T (Breast Cancer); test: NCI one dose, HS 578T; type: cell-based, human; settings: 1.00E-5 Molar one dose
Outline: as §1

[28] = tested on: SK-MEL-2 (Melanoma); test: NCI one dose, SK-MEL-2; type: cell-based, human; settings: SK-MEL-2, 1.00E-5 Molar one dose
Outline: as §1

[29] = tested on: OVCAR-3 (Ovarian Cancer); test: NCI one dose, OVCAR-3; type: cell-based, human; settings: OVCAR-3, 1.00E-5 Molar one dose
Outline: as §1

[30] = tested on: BT-549 (Breast Cancer); test: NCI one dose, BT-549; type: cell-based, human; settings: BT-549, 1.00E-5 Molar one dose
Outline: as §1

[31] = tested on: KM12 (Colon Cancer); test: NCI one dose, KM12; type: cell-based, human; settings: KM12, 1.00E-5 Molar one dose
Outline: as §1

[32] = tested on: SK-OV-3 (Ovarian Cancer); test: NCI one dose, SK-OV-3; type: cell-based, human; settings: SK-OV-3, 1.00E-5 Molar one dose
Outline: as §1

[33] = tested on: T-47D (Breast Cancer); test: NCI one dose, T-47D; type: cell-based, human; settings: 1.00E-5 Molar one dose
Outline: as §2

In the case of `COc1cc(CNC(=O)[C@@H]2CS[C@@]3(C)c4ccccc4C(=O)N23)cc(OC)c1OC` [4bJ], the “Growth Percent” value [1] was 92.46%, the “Growth Percent” value [2] was 73.76% and the “Growth Percent” value [3] was 102.06%. For the same molecule, the “Growth Percent” value [4] was 90.73%, the “Growth Percent” value [5] was 90.22% and the “Growth Percent” value [6] was 98.24%. The “Growth Percent” value [7] was 90.55%, the “Growth Percent” value [8] was 99.71% and the “Growth Percent” value [9] was 97.02%. The “Growth Percent” value [10] was 106.56%, the “Growth Percent” value [11] was 93.01% and the “Growth Percent” value [12] was 82.69%. For the same molecule, the “Growth Percent” value [13] was 96.92%, the “Growth Percent” value [14] was 101.09% and the “Growth Percent” value [15] was 71.92%. The “Growth Percent” value [16] was 95.49%, the “Growth Percent” value [17] was 97.41% and the “Growth Percent” value [18] was 105.48%. For the same molecule, the “Growth Percent” value [19] was 108.52%, the “Growth Percent” value [20] was 108.30% and the “Growth Percent” value [21] was 91.58%. The “Growth Percent” value [22] was 103.92%, the “Growth Percent” value [23] was 89.81% and the “Growth Percent” value [24] was 105.04%. For the same molecule, the “Delta (One Dose Mean Graph)” value [25] was 27.08, the “Range (One Dose Mean Graph)” value ([25]; in % (unit assumed)) was 43.64 and the “Mean Growth Percent” value ([25]; mean over tested cell lines) was 95.84%. For the same molecule, the “Growth Percent” value [26] was 98.72%, the “Growth Percent” value [27] was 94.07% and the “Growth Percent” value [28] was 89.27%. The “Growth Percent” value [29] was 112.40%, the “Growth Percent” value [30] was 107.75% and the “Growth Percent” value [31] was 106.18%. The “Growth Percent” value [32] was 103.62% and the “Growth Percent” value [33] was 87.15%.
